Results from patent publication US20230085307A1, “PYRIDAZINONE COMPOUND AND HERBICIDE” (NISSAN CHEMICAL CORPORATION, priority 2019, published 2023).

Assays:
windgrass [1] = assay: Test Example 5: herbicidal effect by foliage application, plastic box (Table 20, symbol L); assay type: in vivo, windgrass (Apera spica-venti); settings: foliage application, 320 g/ha, evaluated three weeks after application
Method in brief: (§1)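 Post-emergence foliar test in sterilized diluvial soil. Compound applied as water-diluted emulsion at a predetermined rate to 14-day-old plants; evaluation at three weeks.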

lambsquarters [2] = assay: Test Example 5: herbicidal effect by foliage application, plastic box (Table 20, symbol O); assay type: in vivo, lambsquarters (Chenopodium album); settings: foliage application, 320 g/ha, evaluated three weeks after application
Method in brief: as §1

persian speedwell [3] = assay: Test Example 4: herbicidal effect by soil treatment (Table 19, symbol R); assay type: in vivo, Persian speedwell (Veronica persica); settings: amount of applied herbicide 320 g/ha
Method in brief: (§2)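 Scoring uses the grading scale of an earlier test, three weeks post-application. Treatment consists of spraying a diluted emulsion formulation across the surface of sterilized diluvial soil in which seeds are buried near 1.5 cm deep; boxes are kept in a greenhouse between 25° C. and 30° C.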

blackgrass [4] = assay: Test Example 4: herbicidal effect by soil treatment (Table 19, symbol J); assay type: in vivo, blackgrass (Alopecurus myosuroides); settings: amount of applied herbicide 320 g/ha
Method in brief: as §2

lambsquarters [5] = assay: Test Example 4: herbicidal effect by soil treatment (Table 19, symbol O); assay type: in vivo, lambsquarters (Chenopodium album); settings: amount of applied herbicide 320 g/ha
Method in brief: as §2

false cleavers [6] = assay: Test Example 4: herbicidal effect by soil treatment (Table 19, symbol Q); assay type: in vivo, false cleavers (Galium spurium); settings: amount of applied herbicide 320 g/ha
Method in brief: as §2

green foxtail [7] = assay: Test Example 4: herbicidal effect by soil treatment (Table 19, symbol G); assay type: in vivo, green foxtail (Setaria viridis); settings: amount of applied herbicide 320 g/ha
Method in brief: as §2

Chinese sprangletop = assay: Test Example 3: herbicidal effect by foliage application, Wagner pot (Table 18, symbol D); assay type: in vivo, chinese sprangletop (Leptochloa chinensis); settings: amount of applied herbicide 320 g/ha
Method in brief: (§3)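 Plants were sown in alluvial soil held under 0.1–0.5 cm standing water and grown 14 days in a greenhouse at 25–30 °C. An emulsifiable formulation, water-diluted to the set dose, was then sprayed onto the foliage, and effects were scored three weeks later using previously defined criteria.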

wild oat [8] = assay: Test Example 4: herbicidal effect by soil treatment (Table 19, symbol I); assay type: in vivo, wild oat (Avena fatua); settings: amount of applied herbicide 320 g/ha
Method in brief: as §2

rice flat sedge = assay: Test Example 3: herbicidal effect by foliage application, Wagner pot (Table 18, symbol E); assay type: in vivo, rice flat sedge (Cyperus iria); settings: amount of applied herbicide 320 g/ha
Method in brief: as §3

velvetleaf [9] = assay: Test Example 5: herbicidal effect by foliage application, plastic box (Table 20, symbol M); assay type: in vivo, velvetleaf (Abutilon theophrasti); settings: foliage application, 320 g/ha, evaluated three weeks after application
Method in brief: as §1

southern crabgrass [10] = assay: Test Example 4: herbicidal effect by soil treatment (Table 19, symbol F); assay type: in vivo, southern crabgrass (Digitaria ciliaris); settings: amount of applied herbicide 320 g/ha
Method in brief: as §2

blackgrass [11] = assay: Test Example 5: herbicidal effect by foliage application, plastic box (Table 20, symbol J); assay type: in vivo, blackgrass (Alopecurus myosuroides); settings: foliage application, 320 g/ha, evaluated three weeks after application
Method in brief: as §1

southern crabgrass [12] = assay: Test Example 5: herbicidal effect by foliage application, plastic box (Table 20, symbol F); assay type: in vivo, southern crabgrass (Digitaria ciliaris); settings: foliage application, 320 g/ha, evaluated three weeks after application
Method in brief: as §1

green foxtail [13] = assay: Test Example 5: herbicidal effect by foliage application, plastic box (Table 20, symbol G); assay type: in vivo, green foxtail (Setaria viridis); settings: foliage application, 320 g/ha, evaluated three weeks after application
Method in brief: as §1

windgrass [14] = assay: Test Example 4: herbicidal effect by soil treatment (Table 19, symbol L); assay type: in vivo, windgrass (Apera spica-venti); settings: amount of applied herbicide 320 g/ha
Method in brief: as §2

redroot pigweed [15] = assay: Test Example 4: herbicidal effect by soil treatment (Table 19, symbol N); assay type: in vivo, redroot pigweed (Amaranthus retroflexus); settings: amount of applied herbicide 320 g/ha
Method in brief: as §2

false cleavers [16] = assay: Test Example 5: herbicidal effect by foliage application, plastic box (Table 20, symbol Q); assay type: in vivo, false cleavers (Galium spurium); settings: foliage application, 320 g/ha, evaluated three weeks after application
Method in brief: as §1

barnyard grass [17] = assay: Test Example 4: herbicidal effect by soil treatment (Table 19, symbol H); assay type: in vivo, barnyard grass (Echinochloa crus-galli); settings: amount of applied herbicide 320 g/ha
Method in brief: as §2

persian speedwell [18] = assay: Test Example 5: herbicidal effect by foliage application, plastic box (Table 20, symbol R); assay type: in vivo, Persian speedwell (Veronica persica); settings: foliage application, 320 g/ha, evaluated three weeks after application
Method in brief: as §1

barnyard grass [19] = assay: Test Example 3: herbicidal effect by foliage application, Wagner pot (Table 18, symbol H); assay type: in vivo, barnyard grass (Echinochloa crus-galli); settings: amount of applied herbicide 320 g/ha
Method in brief: as §3

velvetleaf [20] = assay: Test Example 4: herbicidal effect by soil treatment (Table 19, symbol M); assay type: in vivo, velvetleaf (Abutilon theophrasti); settings: amount of applied herbicide 320 g/ha
Method in brief: as §2

wild oat [21] = assay: Test Example 5: herbicidal effect by foliage application, plastic box (Table 20, symbol I); assay type: in vivo, wild oat (Avena fatua); settings: foliage application, 320 g/ha, evaluated three weeks after application
Method in brief: as §1

chickweed [22] = assay: Test Example 5: herbicidal effect by foliage application, plastic box (Table 20, symbol P); assay type: in vivo, common chickweed (Stellaria media); settings: foliage application, 320 g/ha, evaluated three weeks after application
Method in brief: as §1

Italian ryegrass [23] = assay: Test Example 5: herbicidal effect by foliage application, plastic box (Table 20, symbol K); assay type: in vivo, Italian ryegrass (Lolium multiflorum); settings: foliage application, 320 g/ha, evaluated three weeks after application
Method in brief: as §1

barnyard grass [24] = assay: Test Example 5: herbicidal effect by foliage application, plastic box (Table 20, symbol H); assay type: in vivo, barnyard grass (Echinochloa crus-galli); settings: foliage application, 320 g/ha, evaluated three weeks after application
Method in brief: as §1

Italian ryegrass [25] = assay: Test Example 4: herbicidal effect by soil treatment (Table 19, symbol K); assay type: in vivo, Italian ryegrass (Lolium multiflorum); settings: amount of applied herbicide 320 g/ha
Method in brief: as §2

chickweed [26] = assay: Test Example 4: herbicidal effect by soil treatment (Table 19, symbol P); assay type: in vivo, common chickweed (Stellaria media); settings: amount of applied herbicide 320 g/ha
Method in brief: as §2

redroot pigweed [27] = assay: Test Example 5: herbicidal effect by foliage application, plastic box (Table 20, symbol N); assay type: in vivo, redroot pigweed (Amaranthus retroflexus); settings: foliage application, 320 g/ha, evaluated three weeks after application
Method in brief: as §1

## CCCC(=O)Oc1c(C)nn(C)c(=O)c1-c1c(-c2ccc(OC)c(OC)c2)sc2ccc(Cl)cc12 [2-124]
Windgrass [1]
  herbicidal effect on L: windgrass: 0 (Herbicidal rate of 5% or less (almost no effect))
Lambsquarters [2]
  herbicidal effect on O: lambsquarters: 0 (Herbicidal rate of 5% or less (almost no effect))
Persian speedwell [3]
  R: persian speedwell, herbicidal effect rating: 0 (Herbicidal rate of 5% or less (almost no effect))
Blackgrass [4]
  J: blackgrass, herbicidal effect rating: 0 (Herbicidal rate of 5% or less (almost no effect))
Lambsquarters [5]
  O: lambsquarters, herbicidal effect rating: 3 (Herbicidal rate of 40% or more and less than 70%)
False cleavers [6]
  Q: false cleavers, herbicidal effect rating: 0 (Herbicidal rate of 5% or less (almost no effect))
Green foxtail [7]
  G: green foxtail, herbicidal effect rating: 0 (Herbicidal rate of 5% or less (almost no effect))
Chinese sprangletop
  herbicidal effect on D: Chinese sprangletop: 1 (Herbicidal rate of 5% or more and less than 20%)
Wild oat [8]
  I: wild oat, herbicidal effect rating: 0 (Herbicidal rate of 5% or less (almost no effect))
Rice flat sedge
  herbicidal effect on E: rice flat sedge: 0 (Herbicidal rate of 5% or less (almost no effect))
Velvetleaf [9]
  herbicidal effect on M: velvetleaf: 1 (Herbicidal rate of 5% or more and less than 20%)
Southern crabgrass [10]
  F: southern crabgrass, herbicidal effect rating: 1 (Herbicidal rate of 5% or more and less than 20%)
Blackgrass [11]
  herbicidal effect on J: blackgrass: 0 (Herbicidal rate of 5% or less (almost no effect))
Southern crabgrass [12]
  herbicidal effect on F: southern crabgrass: 0 (Herbicidal rate of 5% or less (almost no effect))
Green foxtail [13]
  herbicidal effect on G: green foxtail: 0 (Herbicidal rate of 5% or less (almost no effect))
Windgrass [14]
  L: windgrass, herbicidal effect rating: 0 (Herbicidal rate of 5% or less (almost no effect))
Redroot pigweed [15]
  N: redroot pigweed, herbicidal effect rating: 0 (Herbicidal rate of 5% or less (almost no effect))
False cleavers [16]
  herbicidal effect on Q: false cleavers: 0 (Herbicidal rate of 5% or less (almost no effect))
Barnyard grass [17]
  H: barnyard grass, herbicidal effect rating: 0 (Herbicidal rate of 5% or less (almost no effect))
Persian speedwell [18]
  herbicidal effect on R: persian speedwell: 5 (Herbicidal rate of 90% or more (almost completely withered))
Barnyard grass [19]
  herbicidal effect on H: barnyard grass: 3 (Herbicidal rate of 40% or more and less than 70%)
Velvetleaf [20]
  M: velvetleaf, herbicidal effect rating: 0 (Herbicidal rate of 5% or less (almost no effect))
Wild oat [21]
  herbicidal effect on I: wild oat: 0 (Herbicidal rate of 5% or less (almost no effect))
Chickweed [22]
  herbicidal effect on P: chickweed: 2 (Herbicidal rate of 20% or more and less than 40%)
Italian ryegrass [23]
  herbicidal effect on K: Italian ryegrass: 0 (Herbicidal rate of 5% or less (almost no effect))
Barnyard grass [24]
  herbicidal effect on H: barnyard grass: 0 (Herbicidal rate of 5% or less (almost no effect))
Italian ryegrass [25]
  K: Italian ryegrass, herbicidal effect rating: 0 (Herbicidal rate of 5% or less (almost no effect))
Chickweed [26]
  P: chickweed, herbicidal effect rating: 0 (Herbicidal rate of 5% or less (almost no effect))
Redroot pigweed [27]
  herbicidal effect on N: redroot pigweed: 2 (Herbicidal rate of 20% or more and less than 40%)
